pIC50: −log10 of the molar value.
Columns and labels:
[1] = molecular target: T1, BRM (Homo sapiens, UniProt P51531); assay: ATPase catalytic activity of BRM, ADP-Glo in vitro biochemical assay; details: ATPase catalytic activity, 30 nM BRM, 400 μM ATP, read-out: BRM IP50
T1 construct: made in house; host or cells: High Five insect cells

[2] = molecular target: T2, BRG-1 (Homo sapiens, UniProt P51532); assay: ATPase catalytic activity of BRG-1, ADP-Glo in vitro biochemical assay; details: ATPase catalytic activity, 30 nM BRG-1, 400 μM ATP, read-out: BRG1 IP50
T2 construct: made in house; host or cells: High Five insect cells
T2 sequence (P51532 whole entry): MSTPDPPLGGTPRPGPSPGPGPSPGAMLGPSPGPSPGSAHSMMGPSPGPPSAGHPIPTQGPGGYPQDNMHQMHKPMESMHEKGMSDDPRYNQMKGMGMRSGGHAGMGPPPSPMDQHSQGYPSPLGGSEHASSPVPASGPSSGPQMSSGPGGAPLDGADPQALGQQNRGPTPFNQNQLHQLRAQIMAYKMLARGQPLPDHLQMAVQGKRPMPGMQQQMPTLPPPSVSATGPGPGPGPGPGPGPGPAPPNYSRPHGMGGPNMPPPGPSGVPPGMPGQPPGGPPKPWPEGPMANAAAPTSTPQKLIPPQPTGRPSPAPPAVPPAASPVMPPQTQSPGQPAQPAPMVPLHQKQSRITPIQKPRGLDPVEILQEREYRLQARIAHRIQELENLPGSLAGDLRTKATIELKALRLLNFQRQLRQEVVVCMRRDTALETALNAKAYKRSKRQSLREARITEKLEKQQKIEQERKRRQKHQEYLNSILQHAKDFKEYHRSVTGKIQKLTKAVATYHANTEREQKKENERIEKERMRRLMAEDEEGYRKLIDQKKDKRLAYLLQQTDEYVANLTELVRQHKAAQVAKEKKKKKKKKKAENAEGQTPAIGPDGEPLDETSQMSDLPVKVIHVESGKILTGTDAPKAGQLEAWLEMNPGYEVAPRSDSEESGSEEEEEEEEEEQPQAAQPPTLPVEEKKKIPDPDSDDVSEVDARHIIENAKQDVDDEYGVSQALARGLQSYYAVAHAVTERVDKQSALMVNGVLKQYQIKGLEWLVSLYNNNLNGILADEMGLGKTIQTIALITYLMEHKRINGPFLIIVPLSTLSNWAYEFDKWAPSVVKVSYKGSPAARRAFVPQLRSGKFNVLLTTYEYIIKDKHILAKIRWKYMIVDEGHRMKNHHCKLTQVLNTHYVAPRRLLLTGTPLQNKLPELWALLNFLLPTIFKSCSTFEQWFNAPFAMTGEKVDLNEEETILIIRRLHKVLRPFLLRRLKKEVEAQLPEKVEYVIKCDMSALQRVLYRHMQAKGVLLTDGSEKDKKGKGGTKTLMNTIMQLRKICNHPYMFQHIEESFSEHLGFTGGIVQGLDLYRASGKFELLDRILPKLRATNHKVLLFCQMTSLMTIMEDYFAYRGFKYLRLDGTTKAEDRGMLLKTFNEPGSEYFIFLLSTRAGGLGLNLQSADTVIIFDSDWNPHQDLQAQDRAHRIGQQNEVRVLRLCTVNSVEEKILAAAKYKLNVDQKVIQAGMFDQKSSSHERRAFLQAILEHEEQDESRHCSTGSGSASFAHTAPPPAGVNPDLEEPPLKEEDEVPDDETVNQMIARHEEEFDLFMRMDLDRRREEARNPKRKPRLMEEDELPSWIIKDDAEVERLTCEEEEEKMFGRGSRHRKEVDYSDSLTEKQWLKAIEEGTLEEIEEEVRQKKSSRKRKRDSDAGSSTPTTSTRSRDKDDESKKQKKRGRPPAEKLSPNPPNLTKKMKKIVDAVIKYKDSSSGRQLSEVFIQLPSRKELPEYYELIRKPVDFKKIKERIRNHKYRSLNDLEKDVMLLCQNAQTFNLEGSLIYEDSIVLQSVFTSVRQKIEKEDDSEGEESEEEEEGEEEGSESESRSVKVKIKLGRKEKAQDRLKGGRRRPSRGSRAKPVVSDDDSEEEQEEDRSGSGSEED

T1 sequence (P51531 whole entry): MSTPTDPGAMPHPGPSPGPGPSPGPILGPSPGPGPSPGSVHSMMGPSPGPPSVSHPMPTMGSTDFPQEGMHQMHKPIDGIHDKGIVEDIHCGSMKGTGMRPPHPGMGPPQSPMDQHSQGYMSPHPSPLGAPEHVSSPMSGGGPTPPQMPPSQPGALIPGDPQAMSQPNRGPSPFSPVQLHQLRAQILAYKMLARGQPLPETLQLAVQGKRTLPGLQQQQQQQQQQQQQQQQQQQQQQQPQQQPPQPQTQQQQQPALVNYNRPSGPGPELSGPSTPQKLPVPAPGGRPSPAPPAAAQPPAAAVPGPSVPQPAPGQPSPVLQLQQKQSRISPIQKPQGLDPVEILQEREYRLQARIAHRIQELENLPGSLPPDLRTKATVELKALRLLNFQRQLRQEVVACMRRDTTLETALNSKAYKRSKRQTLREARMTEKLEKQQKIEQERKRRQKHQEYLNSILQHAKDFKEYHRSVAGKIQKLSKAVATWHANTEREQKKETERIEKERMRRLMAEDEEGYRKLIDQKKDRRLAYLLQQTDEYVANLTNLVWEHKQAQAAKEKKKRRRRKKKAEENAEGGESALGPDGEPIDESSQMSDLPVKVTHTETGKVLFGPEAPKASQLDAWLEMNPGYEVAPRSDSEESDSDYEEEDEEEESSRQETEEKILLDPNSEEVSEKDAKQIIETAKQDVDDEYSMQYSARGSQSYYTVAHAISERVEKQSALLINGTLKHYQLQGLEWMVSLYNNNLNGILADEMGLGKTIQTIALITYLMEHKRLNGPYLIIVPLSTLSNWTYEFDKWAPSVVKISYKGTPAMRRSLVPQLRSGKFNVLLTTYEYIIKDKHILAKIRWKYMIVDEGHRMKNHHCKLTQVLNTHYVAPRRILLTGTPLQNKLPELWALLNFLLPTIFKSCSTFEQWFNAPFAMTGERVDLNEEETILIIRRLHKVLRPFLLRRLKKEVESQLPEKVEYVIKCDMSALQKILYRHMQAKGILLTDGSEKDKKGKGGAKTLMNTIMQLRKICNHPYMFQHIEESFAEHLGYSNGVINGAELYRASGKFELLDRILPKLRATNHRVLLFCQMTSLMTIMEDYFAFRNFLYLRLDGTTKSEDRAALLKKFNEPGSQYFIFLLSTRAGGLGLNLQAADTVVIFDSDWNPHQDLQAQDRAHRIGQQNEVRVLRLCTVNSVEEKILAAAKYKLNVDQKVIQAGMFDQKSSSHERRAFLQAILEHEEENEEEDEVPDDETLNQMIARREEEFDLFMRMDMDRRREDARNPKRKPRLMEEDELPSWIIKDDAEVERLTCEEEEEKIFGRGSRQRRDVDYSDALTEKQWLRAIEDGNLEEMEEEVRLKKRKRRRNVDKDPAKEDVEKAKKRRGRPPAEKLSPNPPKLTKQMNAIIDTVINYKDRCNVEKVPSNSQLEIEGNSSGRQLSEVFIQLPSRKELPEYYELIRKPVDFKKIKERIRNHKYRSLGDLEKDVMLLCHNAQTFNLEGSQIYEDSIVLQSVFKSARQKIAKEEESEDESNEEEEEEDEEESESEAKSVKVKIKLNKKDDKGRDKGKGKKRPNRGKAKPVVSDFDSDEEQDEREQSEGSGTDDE

pIC50 [1]	pIC50 [2]	Compound
< 8.00	< 8.00	CS(=O)(=O)n1ccc(C(=O)NCC(=O)Nc2nc(-c3cccc([C@H]4CC[C@@H](O)CC4)c3)cs2)c1 [Compound 387, N-(2-((4-(3-((cis)-4-hydroxycyclohexyl)phenyl)thiazol-2-yl)amino)-2-oxoethyl)-1-(methylsulfonyl)-1H-pyrrole-3-carboxamide]
< 8.00	< 7.00	CC1(C)CC(c2cccc(-c3csc(NC(=O)CNC(=O)c4ccn(S(C)(=O)=O)c4)n3)c2)CC(C)(C)O1 [Compound 388]
< 8.00	< 8.00	CS(=O)(=O)n1ccc(C(=O)NCC(=O)Nc2nc(-c3cccc(C4=CCN(C5COC5)CC4)c3)cs2)c1 [Compound 389]
< 8.00	< 8.00	CS(=O)(=O)n1ccc(C(=O)NCC(=O)Nc2nc(-c3cccc([C@H]4CCCCO4)c3)cs2)c1 [Compound 393]
< 8.00	< 8.00	CN1CCCc2ccc(-c3csc(NC(=O)CNC(=O)c4ccn(S(C)(=O)=O)c4)n3)nc21 [Compound 394]
< 7.00	< 7.00	CC(C)(C)n1ccc(C(=O)NCC(=O)Nc2nc(-c3cccc(C4(O)CC4)n3)cs2)c1 [Compound 395]
> 8.00	< 8.00	CS(=O)(=O)n1ccc(C(=O)NCC(=O)Nc2nc(-c3cccc(C4=CCCOC4)c3)cs2)c1 [Compound 396, N-[2-[[4-[3-(3,6-dihydro-2H-pyran-5-yl)phenyl]thiazol-2-yl]amino]-2-oxo-ethyl]-1-methylsulfonyl-pyrrole-3-carboxamide]
< 7.00	< 7.00	CC(C)(C)n1ccc(C(=O)NCC(=O)Nc2nc(-c3cccc(N4CCC5(CC4)COC5)c3)cs2)c1 [Compound 397, N-(2-((4-(3-(2-oxa-7-azaspiro[3.5]nonan-7-yl)phenyl)thiazol-2-yl)amino)-2-oxoethyl)-1-(tert-butyl)-1H-pyrrole-3-carboxamide]
< 8.00	< 8.00	CS(=O)(=O)n1ccc(C(=O)NCC(=O)Nc2nc(-c3cccc(C4CCOCC4)c3)cs2)c1 [Compound 399]
> 8.00	> 8.00	CS(=O)(=O)n1ccc(C(=O)NCC(=O)Nc2nc(-c3cccc(C4=CCOCC4)c3)cs2)c1 [Compound 400]
< 7.00	< 7.00	Cc1ccc(Cl)c(-c2cc(-c3csc(NC(=O)CNC(=O)c4ccn(S(C)(=O)=O)c4)n3)ccc2C)n1 [Compound 401, N-(2-((4-(3-(3-chloro-6-methylpyridin-2-yl)-4-methylphenyl)thiazol-2-yl)amino)-2-oxoethyl)-1-(methylsulfonyl)-1H-pyrrole-3-carboxamide]
> 8.00	< 8.00	Cc1cc(-c2cccc(-c3csc(NC(=O)CNC(=O)c4ccn(C(C)(C)C)c4)n3)c2)cnn1 [Compound 402]
< 8.00	< 8.00	CCS(=O)(=O)n1ccc(C(=O)NCC(=O)Nc2nc(-c3cccc(-c4cnn(C)n4)c3)cs2)c1 [Compound 403]
> 8.00	< 8.00	CS(=O)(=O)n1ccc(C(=O)NCC(=O)Nc2nc(-c3cccc(-c4cc5n(n4)CCOC5)c3)cs2)c1 [Compound 404]
> 8.00	> 8.00	Cc1cc(C)nc(-c2cccc(-c3csc(NC(=O)CNC(=O)c4ccn(S(C)(=O)=O)c4)n3)c2)n1 [Compound 405]
> 8.00	> 8.00	Cc1cc(C)nc(-c2cccc(-c3csc(NC(=O)CNC(=O)c4ccn(S(C)(=O)=O)c4)n3)c2)c1 [Compound 406]
> 8.00	> 8.00	Cc1cccc(-c2cccc(-c3csc(NC(=O)CNC(=O)c4ccn(S(C)(=O)=O)c4)n3)c2)n1 [Compound 407]
> 8.00	> 8.00	CS(=O)(=O)n1ccc(C(=O)NCC(=O)Nc2nc(-c3cccc(-c4ccnc(N5CCC5)n4)c3)cs2)c1 [Compound 408, N-[2-[[4-[3-[2-(azetidin-1-yl)pyrimidin-4-yl]phenyl]thiazol-2-yl]amino]-2-oxo-ethyl]-1-methylsulfonyl-pyrrole-3-carboxamide]
> 8.00	> 8.00	CS(=O)(=O)n1ccc(C(=O)NCC(=O)Nc2nc(-c3cccc(-c4ccnc(C5CC5)n4)c3)cs2)c1 [Compound 409]
> 8.00	> 8.00	CS(=O)(=O)n1ccc(C(=O)NCC(=O)Nc2nc(-c3cccc(-c4ccnc(Cl)n4)c3)cs2)c1 [Compound 410]
< 8.00	< 8.00	CC1(C)C=C(c2cccc(-c3csc(NC(=O)CNC(=O)c4ccn(S(C)(=O)=O)c4)n3)c2)CC(C)(C)O1 [Compound 411]
> 8.00	> 8.00	Cc1cc(-c2cccc(-c3csc(NC(=O)CNC(=O)c4ccn(S(C)(=O)=O)c4)n3)c2)nc(C)n1 [Compound 412]
> 8.00	> 8.00	Cc1cc(-c2cccc(-c3csc(NC(=O)CNC(=O)c4ccn(S(C)(=O)=O)c4)n3)c2)c(F)cn1 [Compound 413]
> 8.00	> 8.00	CNC(=O)C(C)(C)n1ccc(-c2cccc(-c3csc(NC(=O)CNC(=O)c4ccn(S(C)(=O)=O)c4)n3)c2)n1 [Compound 414, N-[2-[[4-[3-[1-[1,1-dimethyl-2-(methylamino)-2-oxo-ethyl]pyrazol-3-yl]phenyl]thiazol-2-yl]amino]-2-oxo-ethyl]-1-methylsulfonyl-pyrrole-3-carboxamide]

pIC50 [1]	pIC50 [2]	Compound
< 8.00	< 8.00	CC(C)(C)n1ccc(C(=O)NCC(=O)Nc2nc(-c3cccc(-c4cc5n(n4)CCOC5)c3)cs2)c1 [Compound 415]
> 8.00	> 8.00	Cc1nccc(-c2cccc(-c3csc(NC(=O)CNC(=O)c4ccn(S(C)(=O)=O)c4)n3)c2)n1 [Compound 416]
> 8.00	< 8.00	Cc1cccc(-c2cccc(-c3csc(NC(=O)CNC(=O)c4ccn(C(C)(C)C)c4)n3)c2)n1 [Compound 417]
< 8.00	< 8.00	CN(C)C(=O)C(C)(C)n1ccc(-c2cccc(-c3csc(NC(=O)CNC(=O)c4ccn(S(C)(=O)=O)c4)n3)c2)n1 [Compound 418]
< 8.00	< 7.00	CS(=O)(=O)n1ccc(C(=O)NCC(=O)Nc2nc(-c3cccc([C@@H]4CCCOC4)c3)cs2)c1 [Compound 419, 1-methylsulfonyl-N-[2-oxo-2-[[4-[3-[(3S)-tetrahydropyran-3-yl]phenyl]thiazol-2-yl]amino]ethyl]pyrrole-3-carboxamide]
< 8.00	< 8.00	CS(=O)(=O)n1ccc(C(=O)NCC(=O)Nc2nc(-c3cccc([C@H]4CCCOC4)c3)cs2)c1 [Compound 420, 1-methylsulfonyl-N-[2-oxo-2-[[4-[3-[(3R)-tetrahydropyran-3-yl]phenyl]thiazol-2-yl]amino]ethyl]pyrrole-3-carboxamide]
< 8.00	< 8.00	CS(=O)(=O)n1ccc(C(=O)NCC(=O)Nc2nc(-c3cccc(-c4ccnc(CC(=O)O)c4)c3)cs2)c1 [Compound 421, Sodium 2-(4-(3-(2-(2-(1-(methylsulfonyl)-1H-pyrrole-3-carboxamido)acetamido)thiazol-4-yl)phenyl)pyridin-2-yl)acetate]
> 8.00	> 8.00	C[C@@H]1CN(c2cccc(-c3csc(NC(=O)CNC(=O)c4ccn(S(C)(=O)=O)c4)n3)c2)CC[C@H]1O [Compound 423]
< 8.00	< 8.00	Cc1cc(-c2cccc(-c3csc(NC(=O)CNC(=O)c4ccn(C(C)(C)C)c4)n3)c2)no1 [Compound 425]
< 8.00	< 8.00	CC(C)(O)C#Cc1cccc(-c2csc(NC(=O)CNC(=O)c3ccn(S(C)(=O)=O)c3)n2)c1 [Compound 426]
< 8.00	< 8.00	COCC1CN(c2cccc(-c3csc(NC(=O)CNC(=O)c4ccn(S(C)(=O)=O)c4)n3)c2)C1 [Compound 427]
> 8.00	> 8.00	COC[C@H](NC(=O)c1ccn(S(C)(=O)=O)c1)C(=O)Nc1nc(-c2ccc3ccn(C)c(=O)c3c2)cs1 [Compound 430]
< 8.00	< 8.00	CC(C)(C)n1ccc(C(=O)NCC(=O)Nc2nc(-c3cccc(C4CCCCO4)c3)cs2)c1 (stereo not drawn) [Compound 432]
< 8.00	< 8.00	CN1CCn2nc(-c3cccc(-c4csc(NC(=O)CNC(=O)c5ccn(S(C)(=O)=O)c5)n4)c3)cc2C1=O [Compound 433]
< 8.00	< 8.00	CC(C)(N)Cn1ccc(-c2cccc(-c3csc(NC(=O)CNC(=O)c4ccn(C(C)(C)C)c4)n3)c2)n1 [Compound 434]
> 8.00	> 8.00	CNC(=O)C1(c2cc(-c3cccc(-c4csc(NC(=O)CNC(=O)c5ccn(S(C)(=O)=O)c5)n4)c3)ccn2)CC1 [Compound 435]
< 8.00	< 8.00	COC[C@H](NC(=O)c1ccn(S(C)(=O)=O)c1)C(=O)Nc1nc(-c2cccc(-c3cc(C)no3)c2)cs1 [Compound 436]
< 7.00	< 7.00	CN1CCn2nc(-c3cccc(-c4csc(NC(=O)CNC(=O)c5ccn(C(C)(C)C)c5)n4)c3)cc2C1=O [Compound 437]
> 8.00	> 8.00	COC[C@H](NC(=O)c1ccn(S(C)(=O)=O)c1)C(=O)Nc1nc(-c2cccc(-c3ccnc(Cl)c3)c2)cs1 [Compound 438]
> 8.00	> 8.00	CN(C)C(=O)C1(c2cc(-c3cccc(-c4csc(NC(=O)CNC(=O)c5ccn(S(C)(=O)=O)c5)n4)c3)ccn2)CC1 [Compound 439]
< 8.00	< 8.00	CC(C)(C)n1ccc(C(=O)NCC(=O)Nc2nc(-c3cccc(N4CCN(C5COC5)CC4)n3)cs2)c1 [Compound 440]
> 8.00	> 8.00	CC(=O)NCCOc1cc(-c2cccc(-c3csc(NC(=O)CNC(=O)c4ccn(S(C)(=O)=O)c4)n3)c2)ccn1 [Compound 441]
> 8.00	> 8.00	CS(=O)(=O)n1ccc(C(=O)NCC(=O)Nc2nc(-c3cccc(-c4ccnc(OCCN)c4)c3)cs2)c1 [Compound 442]
> 8.00	< 8.00	COC[C@H](NC(=O)c1ccn(S(C)(=O)=O)c1)C(=O)Nc1nc(-c2cccc(-c3ccnc(OC)c3)c2)cs1 [Compound 443]
